Source: DBAASP
Values after ≈ are worked out from the molar mass of the structure shown. Values joined by “and” are separate entries in the source; they are usually repeats but may differ in a detail not shown here. Equal entries are not always repeated.

Columns and labels:
Assay in all cases: ≥ marks a high value that may be exact or a test limit, other limits are often not marked, values filed in µg/mL are converted to µM
Micrococcus luteus A270 = test system: Micrococcus luteus A270
Escherichia coli SBS 363 = test system: Escherichia coli SBS 363
Candida albicans MDM8 = test system: Candida albicans MDM8
[1] = test system: Staphylococcus aureus ATCC 25923
[2] = test system: Bacillus subtilis ATCC 6633
[3] = test system: Escherichia coli ATCC 25922
[4] = test system: Pseudomonas aeruginosa ATCC BAA-427
[5] = test system: Pseudomonas aeruginosa ATCC 13388
[6] = test system: Staphylococcus aureus ATCC 6538
[7] = test system: Escherichia coli ATCC 11219
[8] = test system: Klebsiella pneumoniae ATCC 10031
[9] = test system: Salmonella enterica subsp. enterica serovar Typhimurium ATCC 14028
Bacillus subtilis 168 HT = test system: Bacillus subtilis 168 HT
Escherichia coli MG1655 = test system: Escherichia coli MG1655
[10] = test system: Salmonella enterica subsp. enterica serovar Enteritidis
Escherichia coli = test system: Escherichia coli
Listeria innocua = test system: Listeria innocua
Bacillus subtilis = test system: Bacillus subtilis
[11] = test system: Enterococcus faecalis ATCC 29212
[12] = test system: Pseudomonas aeruginosa ATCC 27853
[13] = test system: Streptococcus pyogenes ATCC 19615
[14] = test system: Klebsiella pneumoniae ATCC 13883
Staphylococcus aureus = test system: Staphylococcus aureus
Micrococcus luteus = test system: Micrococcus luteus
[15] = test system: Pseudomonas aeruginosa PAO1
Escherichia coli K-12 = test system: Escherichia coli K-12
[16] = test system: Staphylococcus aureus USA 300
Bacillus subtilis 168 = test system: Bacillus subtilis 168

## CC[C@H](C)[C@H](NC(=O)[C@H](CC(C)C)NC(=O)[C@H](CO)NC(=O)[C@H](CC(C)C)NC(=O)[C@H](CC(C)C)NC(=O)[C@@H](N)CCCN=C(N)N)C(=O)N[C@@H](CCCN=C(N)N)C(=O)N[C@@H](CCCCN)C(=O)N[C@@H](CC(C)C)C(=O)N[C@H](C(=O)N[C@H](C(N)=O)[C@@H](C)O)[C@@H](C)CC [RLLSLIRKLIT]
Micrococcus luteus A270
  MIC: 0.5 µM (≈ 0.662 µg/mL)
Escherichia coli SBS 363
  MIC: 1.56 µM (≈ 2.07 µg/mL)
Candida albicans MDM8
  MIC: 0.78 µM (≈ 1.03 µg/mL)

## CC(C)C[C@H](NC(=O)[C@H](CC(=O)O)NC(=O)[C@H](CC(C)C)NC(=O)[C@H](CCCCN)NC(=O)[C@H](CC(C)C)NC(=O)[C@H](CC(=O)O)NC(=O)[C@H](CC(C)C)NC(=O)[C@H](CCCCN)NC(=O)[C@H](CC(C)C)NC(=O)[C@H](CC(=O)O)NC(=O)[C@H](CC(C)C)NC(=O)[C@@H](N)CCCCN)C(=O)O [KLDLKLDLKLDL]
[1]
  MIC: > 100 µM
[2]
  MIC: ≥ 100 µM
[3]
  MIC: > 100 µM
[4]
  MIC: ≥ 100 µM

## CC[C@H](C)[C@H](NC(=O)CN)C(=O)N[C@@H](Cc1cnc[nH]1)C(=O)N[C@@H](CC(=O)O)C(=O)N[C@H](C(=O)N[C@@H](CC(C)C)C(=O)N[C@@H](CCCCN)C(=O)N[C@@H](Cc1ccc(O)cc1)C(=O)NCC(=O)N[C@@H](CCCCN)C(=O)N[C@@H](CCCCN)C(=O)N[C@@H](CO)C(N)=O)[C@@H](C)CC [GIHDILKYGKKS]
[5]
  MIC: 20 µM (≈ 27.2 µg/mL)
[6]
  MIC: 30 µM (≈ 40.7 µg/mL)
[7]
  MIC: 10 µM (≈ 13.6 µg/mL)
[8]
  MIC: 20 µM (≈ 27.2 µg/mL)
[9]
  MIC: 20 µM (≈ 27.2 µg/mL)

## CC(C)C[C@H](NC(=O)[C@H](CC(C)C)NC(=O)[C@H](CCCN=C(N)N)NC(=O)[C@H](CCCN=C(N)N)NC(=O)[C@H](CCCCN)NC(=O)[C@H](C)NC(=O)[C@H](CCCCN)NC(=O)[C@@H](N)CCCCN)C(=O)N[C@@H](CCCCN)C(=O)N[C@@H](CCCCN)C(=O)O [KKAKRRLLKK]
Bacillus subtilis 168 HT
  MIC: ≥ 101 µM
Escherichia coli MG1655
  MIC: ≥ 101 µM

## CC(C)C[C@H](N)C(=O)N[C@@H](CO)C(=O)N[C@@H](Cc1ccccc1)C(=O)N1CCC[C@H]1C(=O)N[C@H](C(=O)N[C@H](C(=O)N[C@@H](CCCCN)C(=O)N[C@H](C(=O)N[C@@H](Cc1ccc(O)cc1)C(=O)N[C@@H](Cc1ccccc1)C(=O)N1CCC[C@H]1C(=O)N[C@@H](Cc1cnc[nH]1)C(=O)N[C@@H](Cc1ccccc1)C(=O)O)[C@@H](C)O)[C@@H](C)O)[C@@H](C)O [LSFPTTKTYFPHF]
[10]
  MIC: 5 µM (≈ 7.93 µg/mL)
Micrococcus luteus A270
  MIC: 5 µM (≈ 7.93 µg/mL)
Escherichia coli
  MIC: 9 µM (≈ 14.3 µg/mL)
Listeria innocua
  MIC: 1 µM (≈ 1.59 µg/mL)

## CC[C@H](C)[C@H](NC(=O)CNC(=O)[C@@H](N)Cc1c[nH]c2ccccc12)C(=O)N[C@@H](Cc1cnc[nH]1)C(=O)N[C@@H](CCCN=C(N)N)C(=O)N[C@H](C(=O)N[C@@H](CC(C)C)C(=O)N[C@@H](CCCCN)C(=O)N[C@@H](Cc1ccc(O)cc1)C(=O)NCC(=O)N[C@@H](CCCCN)C(=O)N1CCC[C@H]1C(=O)N[C@@H](CO)C(=O)O)[C@@H](C)CC [WGIHRILKYGKPS]
[5]
  MIC: 12 µM (≈ 18.7 µg/mL)
[6]
  MIC: 8 µM (≈ 12.4 µg/mL)
[7]
  MIC: 8 µM (≈ 12.4 µg/mL)
[8]
  MIC: 12 µM (≈ 18.7 µg/mL)
[9]
  MIC: 10 µM (≈ 15.5 µg/mL)

## CC[C@H](C)[C@H](NC(=O)CN)C(=O)N[C@@H](Cc1cnc[nH]1)C(=O)N[C@@H](CC(=O)O)C(=O)N[C@H](C(=O)N[C@@H](CC(C)C)C(=O)N[C@@H](CCCCN)C(=O)N[C@@H](Cc1ccc(O)cc1)C(=O)NCC(=O)N[C@@H](CCCCN)C(=O)N[C@@H](C)C(=O)N[C@@H](CO)C(N)=O)[C@@H](C)CC [GIHDILKYGKAS]
[5]
  MIC: 30 µM (≈ 39 µg/mL)
[6]
  MIC: 10 µM (≈ 13 µg/mL)
[7]
  MIC: ≥ 50 µM
[8]
  MIC: 30 µM (≈ 39 µg/mL)
[9]
  MIC: 10 µM (≈ 13 µg/mL)

## CC(C)C[C@H](NC(=O)[C@H](CC(C)C)NC(=O)[C@H](CCCCN)NC(=O)[C@H](CC(C)C)NC(=O)[C@H](CCCCN)NC(=O)[C@H](CC(C)C)NC(=O)[C@H](CCCCN)NC(=O)[C@H](CC(C)C)NC(=O)[C@H](CC(C)C)NC(=O)[C@H](CC(C)C)NC(=O)[C@@H](N)CCCCN)C(=O)N[C@@H](CCCCN)C(N)=O [KLLLKLKLKLLK]
[1]
  MIC: 50 µM (≈ 72.5 µg/mL)
Escherichia coli
  MIC: 50 µM (≈ 72.5 µg/mL)
Bacillus subtilis
  MIC: ≥ 50 µM
[11]
  MIC: 100 µM (≈ 145 µg/mL)
[12]
  MIC: 100 µM (≈ 145 µg/mL)
[9]
  MIC: > 200 µM
[13]
  MIC: ≥ 50 µM
[14]
  MIC: ≥ 200 µM

## CC(C)C[C@H](NC(=O)[C@H](CO)NC(=O)[C@H](CCCN=C(N)N)NC(=O)[C@H](CCCCN)NC(=O)[C@@H](NC(=O)[C@@H](NC(=O)CNC(=O)[C@H](CCCN=C(N)N)NC(=O)[C@H](Cc1cnc[nH]1)NC(=O)[C@H](Cc1c[nH]c2ccccc12)NC(=O)[C@H](Cc1ccccc1)NC(=O)[C@H](Cc1cnc[nH]1)NC(=O)[C@H](Cc1ccc(O)cc1)NC(=O)[C@@H](N)Cc1ccc(O)cc1)C(C)C)[C@@H](C)O)C(=O)N[C@@H](CO)C(=O)N1CCC[C@H]1C(=O)N[C@@H](Cc1cnc[nH]1)C(=O)O [YYHFWHRGVTKRSLSPH]
[1]
  MIC: > 100 µM
Escherichia coli
  MIC: 30 µM (≈ 65.1 µg/mL)
Bacillus subtilis
  MIC: ≥ 100 µM
[11]
  MIC: > 100 µM
[12]
  MIC: > 100 µM
[9]
  MIC: > 100 µM
[13]
  MIC: ≥ 100 µM
[14]
  MIC: ≥ 100 µM

## C[C@@H](O)[C@H](N)C(=O)N[C@@H](CO)C(=O)N[C@@H](CCCCN)C(=O)N[C@@H](Cc1ccc(O)cc1)C(=O)N[C@@H](CCCN=C(N)N)C(=O)O [TSKYR]
[10]
  MIC: 5 µM and 4.6 µM
Micrococcus luteus A270
  MIC: 9 µM (≈ 5.88 µg/mL)
Escherichia coli
  MIC: 9 µM (≈ 5.88 µg/mL)
Staphylococcus aureus
  MIC: 1 µM (≈ 0.654 µg/mL)
Micrococcus luteus
  MIC: 9 µM (≈ 5.88 µg/mL)
Listeria innocua
  MIC: 1 µM (≈ 0.654 µg/mL)

## CC[C@H](C)[C@H](NC(=O)CNC(=O)[C@@H](NC(=O)[C@H](CCCCN)NC(=O)[C@@H](NC(=O)CNC(=O)[C@H](CC(C)C)NC(=O)[C@H](Cc1c[nH]c2ccccc12)NC(=O)[C@H](CCCN=C(N)N)NC(=O)[C@@H](N)CC(C)C)[C@@H](C)O)C(C)C)C(=O)N[C@@H](CC(C)C)C(=O)N[C@@H](CCCCN)C(=O)O [LRWLGTKVGILK]
Bacillus subtilis 168 HT
  MIC: ≥ 92 µM
Escherichia coli MG1655
  MIC: ≥ 92 µM

## CC[C@H](C)[C@H](NC(=O)CN)C(=O)N[C@@H](Cc1cnc[nH]1)C(=O)N[C@@H](CC(=O)O)C(=O)N[C@@H](C)C(=O)N[C@@H](CC(C)C)C(=O)N[C@@H](CCCCN)C(=O)N[C@@H](Cc1ccc(O)cc1)C(=O)NCC(=O)N[C@@H](CCCCN)C(=O)N1CCC[C@H]1C(=O)N[C@@H](CO)C(N)=O [GIHDALKYGKPS]
[5]
  MIC: 10 µM (≈ 12.8 µg/mL)
[6]
  MIC: 20 µM (≈ 25.7 µg/mL)
[7]
  MIC: 20 µM (≈ 25.7 µg/mL)
[8]
  MIC: 20 µM (≈ 25.7 µg/mL)
[9]
  MIC: 4 µM (≈ 5.14 µg/mL)

## CC[C@H](C)[C@H](NC(=O)[C@@H](NC(=O)[C@H](CCCCN)NC(=O)[C@H](CCCCN)NC(=O)[C@H](Cc1ccccc1)NC(=O)[C@@H](N)CCCCN)C(C)C)C(=O)N[C@@H](Cc1c[nH]c2ccccc12)C(=O)N[C@@H](CCCCN)C(=O)N[C@@H](CO)C(=O)N[C@@H](Cc1ccccc1)C(=O)N[C@@H](CC(C)C)C(=O)O [KFKKVIWKSFL]
Bacillus subtilis 168 HT
  MIC: ≥ 45 µM
Escherichia coli MG1655
  MIC: ≥ 90 µM

## CC(C)[C@H](NC(=O)[C@@H](NC(=O)[C@H](CCCCN)NC(=O)CNC(=O)[C@@H](NC(=O)[C@@H](NC(=O)[C@H](CO)NC(=O)[C@@H](NC(=O)[C@@H](NC(=O)[C@@H]1CCCN1C(=O)[C@@H](NC(=O)[C@@H](NC(=O)CN)C(C)C)C(C)C)C(C)C)C(C)C)C(C)C)C(C)C)C(C)C)C(N)=O [GVVPVVSVVGKVV]
[15]
  MIC: > 100 µM
Escherichia coli K-12
  MIC: ≥ 100 µM
[16]
  MIC: ≥ 100 µM
Bacillus subtilis 168
  MIC: ≥ 100 µM
